Source: patent US20250340556A1, “PYRIMIDOPYRIMIDONE COMPOUNDS AND METHODS OF USE THEREOF” (Soltego, Inc., priority 2022, published 2025)
Entries after “also recorded” stand apart in the source; their conditions may differ. Like-named read-outs stand apart in the source and are kept apart here.

Key:
[1] = tested on: living human skin explants; format: cell-based
SIK (h) / SIK1 = SIK (h) / SIK1 (Homo sapiens (Human), UniProt P57059); experiment: SIK1 kinase activity, Eurofins KinaseProfiler ([γ-33P]-ATP filter assay); format: biochemical; conditions: Table 6, macrocycles
Method: (§1) SIK1, 2 and 3 kinase activity was assessed using a Eurofins Cerep S.A. (‘Eurofins’) KinaseProfiler. All compounds were prepared to 50× final assay concentration in 100% DMSO. This working stock of the compound was added to the assay well as the first component in the reaction, followed by the remaining components as detailed in the general assay protocols below. In the standard KinaseProfiler service, there is no pre-incubation step between the compound and the kinase prior to initiation of the reaction. The positive control well contains all components of the reaction, except the compound of interest; however, DMSO (at a final concentration of 2%) is included in these wells to control for solvent effects. The blank wells contain all components of the reaction, with a reference inhibitor replacing the compound of interest. This abolishes kinase activity and establishes the base-line (0% kinase activity remaining).
(§2) SIK (h) was incubated with 8 mM MOPS pH 7.0, 0.2 mM EDTA, 100 μM […], 10 mM Magnesium acetate and [γ-33P]-ATP (specific activity and concentration as required). The reaction was initiated by the addition of the Mg/ATP mix. After incubation for 40 minutes at room temperature, the reaction was stopped by the addition of phosphoric acid to a concentration of 0.5%, 10 μL of the reaction was then spotted onto a P30 filtermat and washed four times for 4 minutes in 0.425% phosphoric acid and once in methanol prior to drying and scintillation counting.

SIK3 (h) = SIK3 (h) (Homo sapiens (Human), UniProt Q9Y2K2); experiment: SIK3 kinase activity, Eurofins KinaseProfiler ([γ-33P]-ATP filter assay); format: biochemical; conditions: Table 6, macrocycles
Method: as §1
as §2, with “SIK3 (h) was” for “SIK (h) was”, “acetate and [γ-33P-ATP](specific activity and” for “acetate and [γ-33P]-ATP (specific activity and”, “the reaction is stopped by” for “the reaction was stopped by”, “0.5%, […] of the” for “0.5%, 10 μL of the”

SIK2 (h) = SIK2 (h) (Homo sapiens (Human), UniProt Q9H0K1); experiment: SIK2 kinase activity, Eurofins KinaseProfiler ([γ-33P]-ATP filter assay); format: biochemical; conditions: Table 6, macrocycles; read-out: IC50 nM SIK2
Method: as §1
as §2, with “SIK2” for “SIK”, “[γ-33P-ATP](specific” for “[γ-33P]-ATP (specific”

[2] = ester bond, 14-membered ring
SIK1 = SIK1 (Homo sapiens (Human), UniProt P57059); experiment: cell-based
SIK1, sequence (P57059 whole entry): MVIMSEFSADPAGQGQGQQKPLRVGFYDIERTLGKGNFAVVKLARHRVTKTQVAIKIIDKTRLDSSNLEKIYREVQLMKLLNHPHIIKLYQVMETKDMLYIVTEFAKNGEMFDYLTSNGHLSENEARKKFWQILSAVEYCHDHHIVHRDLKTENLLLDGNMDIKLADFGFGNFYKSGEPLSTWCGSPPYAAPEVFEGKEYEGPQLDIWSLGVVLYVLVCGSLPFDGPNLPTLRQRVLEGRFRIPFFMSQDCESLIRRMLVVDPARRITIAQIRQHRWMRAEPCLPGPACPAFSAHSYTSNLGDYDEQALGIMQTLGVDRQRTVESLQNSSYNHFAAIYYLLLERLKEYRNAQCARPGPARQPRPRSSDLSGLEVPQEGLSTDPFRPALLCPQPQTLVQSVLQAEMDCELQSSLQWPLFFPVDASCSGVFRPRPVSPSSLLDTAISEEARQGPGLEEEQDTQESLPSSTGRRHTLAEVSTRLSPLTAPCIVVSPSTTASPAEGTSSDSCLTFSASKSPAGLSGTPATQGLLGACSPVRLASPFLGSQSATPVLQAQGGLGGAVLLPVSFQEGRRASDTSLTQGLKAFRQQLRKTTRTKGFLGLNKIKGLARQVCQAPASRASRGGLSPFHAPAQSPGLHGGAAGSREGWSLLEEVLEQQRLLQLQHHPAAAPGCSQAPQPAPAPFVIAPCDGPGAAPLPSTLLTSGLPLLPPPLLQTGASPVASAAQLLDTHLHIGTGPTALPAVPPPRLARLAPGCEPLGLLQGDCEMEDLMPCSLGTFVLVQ

[3] = tested on: living human skin explants; experiment: Cell viability of living human skin explants, Masson's trichrome staining (Example 8); format: cell-based; conditions: 1% topical in vehicle E
Method: All the tested products were diluted in the vehicle noted as E (Ethanol 65%, Propylene glycol 25%, Transcutol 10%). The diluted solutions were stored at 4° C. within the study period. 36 human skin explants of an average diameter of 11 mm (+1 mm) were prepared on an abdoplasty coming from a person (reference: P2462-AB53) with a III phototype. The explants were kept in survival in BEM culture medium (BIO-EC's Explants Medium) at 37° C. in a humid, 5%-CO2 atmosphere. Study is performed on human skin tissue, obtained from surgical residues in full respect with the Declaration of Helsinki and the article L. 1243-4 of the French Public Health Code.
The excipient E and the tested products were applied topically at a rate of 2 μL per 1 cm^2 explant (˜2 mg/cm^2) and spread and gently rubbed for 10 seconds using a small spatula on day 0 (DO), D3, D5, D7 and D10. […] The culture medium was half renewed (1 ml per well) on D3, D5, D7 and D10. On D0, D3, D4, D5, D6, D7 and D10, the culture media of the irradiated explants (UV) were replaced by HBSS (Hank's Balanced Saline Solution; 1 ml per explant). Then, the explants of the “UV” batch were irradiated using a UV simulator Vibert Lourmat RMX 3W with a dose of 2.25 J/cm^2 of UVA (with 6-8% of UVB) corresponding to 0.5 MED (minimal erythemal dose) on a skin with a III phototype. At the end of the UV irradiation, the explants form the batch TUV were put back in 2 mL of BEM medium. On D0, the 3 explants from the batch TO were collected and cut in two parts. Half was fixed in buffered formalin solution and half was frozen at −80° C. On D10, 3 explants from the concerned batches were collected and treated in the same way than in DO. According to the dispositions mentioned in the study plan, the days of treatments, irradiations and sampling were adjusted to the schedule of working days. After fixation for 24 hours in buffered formalin, the samples were dehydrated and impregnated in paraffin using a Leica PEARL dehydration automat. The samples were embedded using a Leica EG 1160 embedding station. 5-μm-thick sections were made using a Leica RM 2125 Minot-type microtome, and the sections were mounted on Superfrost® histological glass slides. The frozen samples were cut into 7-μm-thick sections using a Leica CM 3050 cryostat. Sections were then mounted on Superfrost®, plus silanized glass slides. The microscopical observations were realized using a Leica DMLB or Olympus BX43 microscope. Pictures were digitized with a numeric DP72 Olympus camera with CellSens storing software.
The cell viability of the epidermal and dermal structures was assessed by microscopical observation of formalin-fixed paraffin-embedded (FFPE) skin sections after Masson's trichrome staining, Goldner variant.

[4] = tested on: living human skin explants; experiment: Pigmentation of living human skin explants ex vivo (Example 10); format: cell-based; conditions: 15 mM and 21 mM, 5 μL/cm2 topically each day for 6 days
Method: SLT-045 (3, 7, 15, 21 mM; 5 μL/cm2) in vehicle (44.9% DMSO/37.5% EtOH/17.4% propylene glycol) was applied topically applied using a Pasteur pipette, each day for 6 days using triplicate skin samples (8 mm punch).

B16 4A5 cells = experiment: B16 4A5 cell viability, MTS assay; format: cell-based, mouse; conditions: 5 μg/mL, 72 h, compared with DMSO 0.1% control
Method: B16 4A5 cells were seeded in 24-well plates at 20,000 cells/well, 24 h before the beginning of the treatment with test compounds at 5 concentrations, in triplicates (n=3). […] Additionally, DMSO at 0.1%, used for solubilization of the test compounds, was tested in parallel. The treatments were performed in culture medium containing only 1% of FBS. […] The effects of the compounds on B16 4A5 viability was assessed. To this purpose, cells were incubated during 72 h with 5 concentrations of the compounds, were left untreated, treated with SDS or with DMSO 0.1%.

[5] = tested on: living human skin explants; experiment: Melanin in living human skin explants, Fontana-Masson staining (Example 9); format: cell-based; conditions: for melanin content (staining, microscopical observation): Propylene glycol 30%; for surface occupied by melanin in the basal cell layer of the epidermis: vehicle E 7.9
Method: All the tested products were diluted in the vehicle (Ethanol 70%, Propylene glycol 30%). 24 human skin explants of an average diameter of […] were prepared on an abdoplasty coming from a person (reference: P2511-AB43) with a II phototype. The explants were kept in survival in BEM culture medium (BIO-EC's Explants Medium) at 37° C. in a humid, 5%-CO2 atmosphere. Products were applied topically at a rate of 2 μL per 1 cm^2 explant (2 mg/cm^2) and spread and gently rubbed for 10 seconds using a small spatula on day 0 (D0), D2, D5 and D7. […] The culture medium was half renewed (1 ml per well) on D2, D5 and D7. After fixation for 24 hours in buffered formalin, the samples were dehydrated and impregnated in paraffin using a Leica PEARL dehydration automat. The samples were embedded using a Leica EG 1160 embedding station. 5-μm-thick sections were made using a Leica RM 2125 Minot-type microtome, and the sections were mounted on Superfrost® histological glass slides. The frozen samples were cut into 7-μm-thick sections using a Leica CM 3050 cryostat. Sections were then mounted on Superfrost® plus silanized glass slides. The microscopical observations were realized using a Leica DMLB or Olympus BX43 microscope. Pictures were digitized with a numeric DP72 Olympus camera with CellSens storing software. Melanin was visualized after silver impregnation according to Masson's Fontana staining method on FFPE skin sections. The staining was assessed by microscopical observation (FIG. 5) and by image analysis (FIG. 6).

| Structure (SMILES) | increase of melanin in the suprabasal layers [1] [%] | IC50 (SIK (h) / SIK1) [nM] | IC50 (SIK3 (h)) [nM] | IC50 (SIK2 (h)) [nM] | ring closure, isolated yield ([2]; from Cc1cccc(C)c1N1Cc2cnc(Nc3ccc(N4CCN(C)CC4)c(CO)c3)nc2N(CCCC(=O)O)C1=O, DCC/DMAP/3A MS, DCM/DMF, 5.37 mM, 25.0 °C, 16.0 h) [%] | EC50 (SIK1) [nM] | cell viability of epidermal and dermal structures [3] | ring closure, isolated yield ([2]; from Cc1cccc(C)c1N1Cc2cnc(Nc3ccc(N4CCN(C)CC4)c(C(=O)O)c3)nc2N(CCCCO)C1=O, 2,4,6-trichlorobenzoyl chloride/TEA, DMAP, toluene/DMF, 5.0 mM, 110.0 °C, 16.0 h) [%] | visual skin pigmentation [4] | viability of cells (B16 4A5 cells) | ring closure, isolated yield ([2]; from Cc1cccc(C)c1N1Cc2cnc(Nc3ccc(N4CCN(C)CC4)c(CC(=O)O)c3)nc2N(CCCO)C1=O, DCC/DMAP/3A MS, DCM/DMF, 25.0 °C, 2.0 h) [%] | change of surface occupied by melanin in the basal cell layer vs the vehicle ([5]; 0.2% topical) | melanin content (staining, microscopical observation) ([5]; 0.2% topical in Ethanol 70%) | surface occupied by melanin in the basal cell layer of the epidermis ([5]; 0.2% topical) | change of surface occupied by melanin in the basal cell layer vs the vehicle ([5]; 2% topical) | melanin content (staining, microscopical observation) ([5]; 2% topical in Ethanol 70%) | surface occupied by melanin in the basal cell layer of the epidermis ([5]; 2% topical) |
| --- | --- | --- | --- | --- | --- | --- | --- | --- | --- | --- | --- | --- | --- | --- | --- | --- | --- |
| Cc1cccc(C)c1N1Cc2cnc3nc2N(CCCC(=O)OCc2cc(ccc2N2CCN(C)CC2)N3)C1=O [SLT-026] | 50 | 2 | 3 | 2 | 9 | 3.24 | very slightly decreased | – | – | – | – | – | – | – | – | – | – |
| Cc1cccc(C)c1N1Cc2cnc3nc2N(CCCCOC(=O)c2cc(ccc2N2CCN(C)CC2)N3)C1=O [SLT-042] | 25 | 2 | 2 | 0.7 | – | 2.02 | very slightly decreased | 22 | – | – | – | – | – | – | – | – | – |
| COC(=O)Cc1cc(Nc2ncc3c(n2)N(CCCO)C(=O)N(c2c(C)cccc2C)C3)ccc1N1CCN(C)CC1 [SLT-045] | – | – | – | – | – | – | – | – | induced a visual skin pigmentation | – | – | – | – | – | – | – | – |
| Cc1cccc(C)c1N1Cc2cnc3nc2N(CCCOC(=O)Cc2cc(ccc2N2CCN(C)CC2)N3)C1=O [SLT-048] | – | – | – | 0.6 | – | 2.58 | very slightly decreased | – | – | slightly diminished | 21 | +24% | slight increase; also recorded: increased | 10.0 | +56% | moderate increase; also recorded: highly increased | 12.6 |
